Structures can show the parent of a compound that is named as a salt.
Tested on: MCH58 fibroblasts
Test: Mass spectrometry-based metabolite profiling
Assay type: cell-based, human
Procedure: Metabolite profiling was performed on MCH58 fibroblasts following treatment with 50 μM meclizine or vehicle control for six hours, using methods similar to those previously described, see […] et al., Mol Syst Biol 4:214 (2008). […] For assessment of media metabolites, 500 μl of spent media or baseline media (prior to addition to cells) were sampled from the culture dish and immediately added to 500 μl of pre-cooled (-80° C.) methanol extraction solution (80% methanol, 20% H2O) to allow for rapid quenching of metabolism and extraction of metabolites. After 20 minutes at 4° C., samples were centrifuged at 14,000 g for 10 minutes. 50 μl of the supernatant was collected, re-diluted 1:20 with methanol extraction solution, and 100 μl of the final solution evaporated under nitrogen. Samples were reconstituted in 60 μl of HPLC-grade water and metabolite levels determined, as described below. For assessment of intracellular metabolites, media was aspirated from the above tissue culture plates and cells gently washed with 4 mL of PBS, to ensure complete removal of residual media metabolites. The PBS was removed and cellular metabolism quenched with immediate addition of 1 mL of pre-cooled (-80° C.) methanol extraction solution (80% methanol, 20% H2O). Cells were scraped, collected in extraction solution, vortexed and the samples centrifuged as described above for preparation of media samples. 100 μl of the supernatant was collected, re-diluted 1:1 with methanol extraction solution, and 100 μl of the final solution evaporated under nitrogen. Samples were reconstituted in 60 μl of HPLC-grade water and metabolites assessed. Six biological replicates were assessed for each group. Analyses of endogenous metabolites were performed using a liquid chromatography tandem mass spectrometry (LC-MS) system composed of a 4000 QTRAP triple quadrupole mass spectrometer (Applied Biosystems/SCIEX) coupled to three Agilent 1100 binary HPLC pumps (Agilent Technologies) and an HTS PAL autosampler (LEAP Technologies) equipped with three injection ports and a column selector valve. Three multiplexed chromatographic methods were configured for the analyses of each sample: LC method 1 used a Luna Phenyl-Hexyl column (Phenomenex) eluted with a linear gradient of water/acetonitrile/acetic acid (initial proportions 100/0/0.001, final proportions 10/90/0.001); […] LC method 3 used a Synergi Polar-RP column (Phenomenex) with reversed phase, gradient elution using 5% acetonitrile/5 mM ammonium acetate (mobile phase A) and 95% acetonitrile/5 mM ammonium acetate (mobile phase B). MS data were acquired using multiple reaction monitoring (MRM) in both the positive (LC method 1) and negative (LC methods 2 and 3) ion modes. During the development of this method, authentic reference compounds were used to determine LC retention times and to tune MRM transitions. Metabolite quantification was performed by integrating peak areas for specific MRM transitions using MultiQuant software (version 1.1; Applied Biosystems/SCIEX) and all integrated peaks were manually reviewed for quality. Extraction and quantification procedures were optimized prior to assessment of samples in this study to ensure measured intracellular and media metabolites were within the linear range of detection. Confirmation of the phosphoethanolamine peak was performed using an exogenous phosphoethanolamine standard (Sigma P0503).

[1] = intracellular, 50 μM, 6 h, over DMSO

Cc1cccc(CN2CCN(C(c3ccccc3)c3ccc(Cl)cc3)CC2)c1 (racemic) [Meclizine, meclizine hydrochloride]
Fold Change P1_M0003_2′-deoxycytidine [1]: 1.13
Fold Change P1_M0007_Acetylcholine_p2_Met-146 [1]: 1.06
Fold Change P1_M0008_Alanine [1]: 1.40
Fold Change P1_M0009_Allantoin [1]: 0.91
Fold Change P1_M0012_Arginine [1]: 1.01
Fold Change P1_M0013_Argininosuccinate [1]: 1.08
Fold Change P1_M0014_Asparagine [1]: 2.43
Fold Change P1_M0015_Aspartate [1]: 1.25
Fold Change P1_M0016_Betaine [1]: 1.08
Fold Change P1_M0018_Carnosine [1]: 1.00
Fold Change P1_M0019_Choline [1]: 0.90
Fold Change P1_M0022_Creatine [1]: 1.47
Fold Change P1_M0023_Creatinine [1]: 1.03
Fold Change P1_M0026_Cysteine [1]: 1.38
Fold Change P1_M0027_Cytidine [1]: 1.28
Fold Change P1_M0030_DimethylGlycine [1]: 0.98
Fold Change P1_M0034_GlutamicAcid_p2 [1]: 1.16
Fold Change P1_M0035_Glutamine [1]: 1.05
Fold Change P1_M0038_Histidine [1]: 1.07
Fold Change P1_M0039_Homocysteine [1]: 0.95
Fold Change P1_M0040_Homoserine [1]: 1.14
Fold Change P1_M0041_Hydroxyproline [1]: 1.17
Fold Change P1_M0042/M0044_Ile/Leu [1]: 0.91
Fold Change P1_M0045_Lysine [1]: 1.08
Fold Change P1_M0046_Metanephrine_p2 [1]: 0.87
Fold Change P1_M0047_Methionine [1]: 1.06
Fold Change P1_M0050_Niacinamide [1]: 1.08
Fold Change P1_M0052_Ornithine [1]: 1.01
Fold Change P1_M0053_Phenylalanine [1]: 1.09
Fold Change P1_M0054_Phosphoethanolamine [1]: 38.21
Fold Change P1_M0055_Proline [1]: 1.28
Fold Change P1_M0056_Pyridoxine [1]: 1.15
Fold Change P1_M0058_Serine [1]: 1.11
Fold Change P1_M0062_Taurine [1]: 1.59
Fold Change P1_M0063_Threonine [1]: 1.14
Fold Change P1_M0066_Tryptophan [1]: 1.13
Fold Change P1_M0067_Tyrosine [1]: 1.18
Fold Change P1_M0068/M0037_Valine/GuanidinoaceticAcid [1]: 0.94
Fold Change P1_M0070_Xanthosine [1]: 1.21
Fold Change P1_M0142_Thymidine [1]: 0.97
Fold Change P1_M0200_L-NMMA [1]: 0.59
Fold Change P1_M0201/M0202_ADMA/SDMA [1]: 0.99
Fold Change P1_M0204_Glycerol [1]: 0.94
Fold Change P1_NM001-M68_Valine-d8 [1]: 1.01
Fold Change P3_M0077_Acetoacetate [1]: 1.07
Fold Change P3_M0081_ADP_p2 [1]: 1.43
Fold Change P3_M0082_AMP [1]: 1.31
Fold Change P3_M0100_FolicAcid [1]: 0.63
Fold Change P3_M0102/M0103/M0196_F16DiP/F26DiP/G16DiP_D79_p2 [1]: 1.32
Fold Change P3_M0104-M0107_F1P/F6P/G1P/G6P_D97 [1]: 0.97
Fold Change P3_M0109-M0110_Glucose/Galactose [1]: 0.94
Fold Change P3_M0111_GlutathioneOxidized [1]: 1.20
Fold Change P3_M0112_GlutathioneReduced [1]: 1.74
Fold Change P3_M0113_Glyceraldehyde [1]: 1.00
Fold Change P3_M0114_Glycerol-3-P [1]: 1.21
Fold Change P3_M0121_Hypoxanthine [1]: 1.17
Fold Change P3_M0126_LacticAcid [1]: 0.99
Fold Change P3_M0127_Lactose [1]: 0.42
Fold Change P3_M0129_NAD [1]: 1.11
Fold Change P3_M0130_NADP [1]: 1.24
Fold Change P3_M0139_Sorbitol [1]: 0.92
Fold Change P3_M0140_Sucrose [1]: 1.18
Fold Change P3_M0145/M0146_UDP-Glucose/UDP-Galactose_p2 [1]: 1.33
Fold Change P3_M0147_UDP-GlucuronicAcid [1]: 1.45
Fold Change P3_M0149_Uracil [1]: 0.90
Fold Change P3_M0150_Uridine [1]: 0.88
Fold Change P3_M0152_Xanthine [1]: 0.85
Fold Change P3_M0154_Methylmalonate [1]: 0.86
Fold Change P3_M0164/M0175_FumaricAcid/MaleicAcid [1]: 1.07
Fold Change P3_M0195_3-PhosphoglycericAcid [1]: 1.45
Fold Change P3_NM002-M109_Glucose-13C6-d7 [1]: 1.02
Fold Change P3_NM003-M161_CitricAcid-d4 [1]: 0.97
Fold Change P4_CAP193_Met-165 [1]: 0.90
Fold Change P4_M0083_ATP_D159 [1]: 1.27
Fold Change P4_M0088_CMP [1]: 1.27
Fold Change P4_M0089_CTP [1]: 1.32
Fold Change P4_M0090_Cystathionine [1]: 1.53
Fold Change P4_M0091_DCDP [1]: 1.09
Fold Change P4_M0092_DCMP [1]: 1.17
Fold Change P4_M0093_DCTP [1]: 1.02
Fold Change P4_M0097_DUMP [1]: 0.88
Fold Change P4_M0100_FolicAcid [1]: 0.84
Fold Change P4_M0102/M0103/M0196_F16DiP/F26DiP/G16DiP_D79_p1 [1]: 1.14
Fold Change P4_M0102/M0103/M0196_F16DiP/F26DiP/G16DiP_D241 [1]: 1.07
Fold Change P4_M0108_GDP_p1 [1]: 1.38
Fold Change P4_M0116_GTP [1]: 1.24
Fold Change P4_M0121_Hypoxanthine [1]: 0.76
Fold Change P4_M0123_Inosine_p2 [1]: 1.18
Fold Change P4_M0126_LacticAcid [1]: 0.96
Fold Change P4_M0137/M0138_Ribose-5-P/Ribulose-5-P_D97 [1]: 1.07
Fold Change P4_M0140_Sucrose [1]: 1.10
Fold Change P4_M0144_UDP [1]: 1.21
Fold Change P4_M0148_UMP_p1 [1]: 0.83
Fold Change P4_M0151_UTP [1]: 1.09
Fold Change P4_M0157/M0156_Alpha-Keto-Glutarate/AdipicAcid [1]: 1.06
Fold Change P4_M0158_AscorbicAcid [1]: 0.96
Fold Change P4_M0159_CDP [1]: 1.52
Fold Change P4_M0161/M0172_CitricAcid/IsocitricAcid [1]: 0.66
Fold Change P4_M0162_Citrulline [1]: 0.87
Fold Change P4_M0163_DHAP [1]: 0.98
Fold Change P4_M0164/M0175_FumaricAcid/MaleicAcid [1]: 0.94
Fold Change P4_M0165_GeranylPyrophosphate [1]: 1.18
Fold Change P4_M0166_Glucuronate [1]: 0.77
Fold Change P4_M0167_Glycerate-2-P_p1_Met-185 [1]: 1.09
Fold Change P4_M0168_GlycochenodeoxycholicAcid [1]: 0.83
Fold Change P4_M0169_GlycocholicAcid [1]: 0.68
Fold Change P4_M0170_HippuricAcid [1]: 0.86
Fold Change P4_M0173_Kynurenine [1]: 0.96
Fold Change P4_M0176_MalicAcid [1]: 0.96
Fold Change P4_M0180_OH-PhenylPyruvate [1]: 0.86
Fold Change P4_M0183_Oxaloacetate [1]: 0.92
Fold Change P4_M0184_PantothenicAcid [1]: 1.29
Fold Change P4_M0185_Pyridoxal-5-phosphate_p1 [1]: 1.01
Fold Change P4_M0187_SuccinicAcid [1]: 0.83
Fold Change P4_M0188_TaurochenodeoxycholicAcid [1]: 0.76
Fold Change P4_M0190_UricAcid [1]: 0.87
Fold Change P4_M0191_Xanthosine-5′-monophosphate [1]: 1.75
Fold Change P4_M0198_AconiticAcid(CAP203)_D129 [1]: 0.55
Fold Change P4_M0205_PhosphoTyrosine [1]: 1.23
Fold Change P4_M0206_Acetyl-CoA_P404 [1]: 1.22
Fold Change P4_M0207_Malonyl-CoA_p1 [1]: 1.16
Fold Change P4_M0210_Pyruvate [1]: 1.08
Fold Change P4_NM002-M109_Glucose-13C6-d7 [1]: 1.15
Fold Change P4_NM003-M161_CitricAcid-d4_p1 [1]: 1.02
increase of intracellular phosphoethanolamine (six hours after treatment): ~35 fold

Source: patent US9399032B2, “Methods and compositions for treating degenerative and ischemic disorders” (The General Hospital Corporation, priority 2009, dated 2016)
